Values after ≈ are worked out from the molar mass of the structure shown.
Legend:
[1] = target: T1, JAK2 (Homo sapiens, UniProt O60674); experiment: KINOMEscan enzyme binding assay (DiscoveRx), JAK2; conditions: read-out: Dissociation Constant JAK2
T1 construct: purchased DiscoveRx (LeadHunter Discover Services, KINOMEscan)
Description: (§1) These assays may be conducted by DiscoveRx (formerly Ambit; San Diego, Calif.). The percentage inhibition produced by incubation with a test compound may be calculated relative to the non-inhibited control.

[2] = target: T2, TYK2 (Homo sapiens, UniProt P29597); experiment: KINOMEscan enzyme binding assay (DiscoveRx), TYK2; conditions: read-out: Dissociation Constant TYK2
T2 construct: purchased DiscoveRx (LeadHunter Discover Services, KINOMEscan)
T2 sequence (P29597 888-1187 limits assumed): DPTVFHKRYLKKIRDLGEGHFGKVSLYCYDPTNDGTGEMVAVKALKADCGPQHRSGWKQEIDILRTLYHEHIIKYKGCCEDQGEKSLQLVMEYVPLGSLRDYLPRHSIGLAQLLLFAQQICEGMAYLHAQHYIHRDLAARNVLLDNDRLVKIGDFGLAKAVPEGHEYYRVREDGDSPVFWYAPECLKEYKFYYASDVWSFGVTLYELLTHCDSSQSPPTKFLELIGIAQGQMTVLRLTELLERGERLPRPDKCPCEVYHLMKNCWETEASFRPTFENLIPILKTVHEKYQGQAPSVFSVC
Description: as §1

[3] = system: CD3/IL2 stimulated PBMC cells; experiment: IFNγ release from CD3/IL2 stimulated PBMC cells (assay (a)); assay type: cell-based; conditions: Homo sapiens, CD3/IL2 stimulation, 48 h, ELISA
[4] = system: Jurkat cells; experiment: Cell cytotoxicity assay in Jurkat cells (assay (c)); assay type: cell-based, human; conditions: 24 h, propidium iodide, normalised to DMSO control
Description: (c) Cell Cytotoxicity Assay
1×10^5 Jurkat cells (immortalised human T lymphocytes) are added to the appropriate number of wells of a 96 well plate in 100 μL of media (RPMI supplemented with 10% foetal bovine serum). 1 μL of DMSO control (final concentration 1.0% v/v) or test compound (final concentration 20, 5 or 1 μg/mL) is added to the wells and incubated at 37° C., 5% CO2. After 24 hours, the plate is centrifuged at 1200 rpm for 3 minutes and the supernatant discarded. Cells are then resuspended in 150 μL (final concentration 7.5 μg/mL) of propidium iodide (PI) in PBS and incubated at 37° C., 5% CO2 for 15 minutes. After 15 minutes, cells are analysed by flow cytometry (BD accuri) using the FL3 window. The % viability is calculated as the % of cells that are PI negative in the test wells normalised to the DMSO control.

[5] = Solubility in fasted-state simulated colonic fluid (FaSSCoF) at pH 6.5; assay type: physicochemical; conditions: 25 °C, pH 6.5, fassgf or other biorelevant, thermodynamic from solid, pH 6.5, 25° C., Run 1, read-out: pH 6.5 FaSSCoF Solubility Run 1
Description: The solubilities of compounds of the invention in FaSSCoF at pH 6.5 are determined using a modification of a previously-reported procedure (Vertzoni, M., et al. Pharm. Res. 2010, 27, 2187-2196). In place of the bile salt extract employed in the original procedure (which extract is no longer available), the modified procedure uses a mixture of sodium taurochlorate (0.15 g), glycocholic acid (0.15 g), ursodeoxycholic acid (0.05 g), cholic acid (0.05 g), and glycodeoxycholic acid (0.05 g). These five bile acids are ground together with a mortar and pestle to produce a fine white powder that is incorporated into the FaSSCoF, as outlined below.
Tris(hydroxymethyl)aminomethane (Tris; 0.275 g) and maleic acid (0.44 g) are dissolved in water (35 mL) to give a solution whose pH is adjusted to 6.5 by treatment with 0.5M NaOH (ca. 12 mL). The solution is then made up to 50 mL with water. A portion of this Tris/maleate buffer solution (ca. 25 mL) is added to a 0.5 L round-bottomed flask, before being treated with 0.00565 g of the bile acid mixture described above. Solutions of phosphatidylcholine (0.0111 g) in DCM (0.15 mL) and palmitic acid (0.0013 g) in DCM (0.15 mL) are added, then the organic solvent is evaporated off under reduced pressure at 40° C. until a clear solution, with no perceptible DCM odour, is achieved. The volume of the evaporated solution is adjusted to 50 mL by addition of the remainder of Tris/maleate buffer, then BSA (0.115 g) is added, before being dissolved by gentle agitation.
Test compounds are suspended in the pH 6.5 FaSSCoF medium to give a maximum final concentration of 2-10 mg/mL. The suspensions are equilibrated at 25° C. for 24 h, before being filtered through a glass fibre C filter. The filtrates are then diluted as appropriate for injection and quantification by HPLC with reference to a standard. Different volumes of the standard, diluted and undiluted sample solutions are injected and the solubilities are calculated using the peak areas determined by integration of the peak found at the same retention time as the principal peak in the standard injection.

T1 sequence (O60674 840-1132 limits assumed): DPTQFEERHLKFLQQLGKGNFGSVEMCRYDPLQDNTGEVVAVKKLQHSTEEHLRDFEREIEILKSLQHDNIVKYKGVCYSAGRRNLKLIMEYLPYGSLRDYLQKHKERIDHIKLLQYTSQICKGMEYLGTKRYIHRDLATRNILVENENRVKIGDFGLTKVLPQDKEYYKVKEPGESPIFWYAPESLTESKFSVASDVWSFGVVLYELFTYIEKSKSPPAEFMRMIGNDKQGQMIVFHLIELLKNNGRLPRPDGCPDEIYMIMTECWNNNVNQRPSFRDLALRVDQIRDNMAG

- Kd [1]: 0.047 nM
- Kd [2]: 0.13 nM
- solubility thermodynamic at 24 h [5]: 10 µg/mL (≈ 16 µM)
SMILES: CCc1cc(O)c(F)cc1-c1ccc2c(-c3nc4c([nH]3)CCN(C(=O)c3cnc(N(C)CCN5CCCC5=O)cn3)C4)n[nH]c2c1 [Example 2(k), 1-(2-((5-(2-(6-(2-ethyl-5-fluoro-4-hydroxyphenyl)-1H-indazol-3-yl)-4,5,6,7-tetrahydro-1H-imidazo[4,5-c]pyridine-5-carbonyl)pyrazin-2-yl)(methyl)amino)ethyl)pyrrolidin-2-one]
- IC50 [3]: 9.9 nM
- % viability at 1 μg/mL [4]: 93%
